Here are results for one compound from US20260014122A1, “DRUG FOR LOWERING BLOOD LDL CHOLESTEROL” (KOWA COMPANY, LTD., priority 2022, published 2026).

Structures are written as SMILES.

The assay deals with patient of a nonalcoholic fatty liver disease (NAFLD). Kind of assay: Effect of compound A on blood LDL-C and cholesterol synthesis/absorption markers in NAFLD patients, compared with placebo. Format: in vivo, human. Conditions: for fasting blood LDL-C concentration (rate of change from baseline): FIG. 1.
Setting [1] is: NAFLD patients, 0.4 mg per day oral, 8 weeks, vs placebo, FIG. 3.

Regarding `CC[C@@H](Oc1cccc(CN(CCCOc2ccc(OC)cc2)c2nc3ccccc3o2)c1)C(=O)O` [compound A, (R)-2-[3-[[N-(benzoxazol-2-yl)-N-3-(4-methoxyphenoxy)propyl]aminomethyl]phenoxy]butyric acid], the “fasting blood LDL-C concentration (rate of change from baseline)” value (NAFLD patients who did not take any existing agent for reducing LDL-C, 0.4 mg per day oral, 12 weeks, vs placebo) was “reduced a fasting blood LDL-C concentration as compared to the placebo administration”. Besides, the “fasting blood LDL-C concentration (rate of change from baseline)” value (NAFLD patients, entire group including patients taking an existing agent for reducing LDL-C, 0.4 mg per day oral (0.2 mg twice a day), 12 weeks, vs placebo) is “reduced a fasting blood LDL-C concentration as compared to the placebo administration”. Under setting [1], the “fasting blood concentration of campesterol (absorption marker for cholesterol), rate of change from baseline” value is “reduced the fasting blood concentration of sitosterol and the fasting blood concentration of campesterol”; the “fasting blood concentration of lathosterol (synthesis marker for cholesterol), rate of change from baseline” value is listed as “reduced the fasting blood concentration of lathosterol”; the “fasting blood concentration of sitosterol (absorption marker for cholesterol), rate of change from baseline” value is “reduced the fasting blood concentration of sitosterol”. Further, for the setting “NAFLD patients, 0.4 mg per day oral, 12 weeks, FIG. 2”, the “reducing effect on LDL-C for each initial value of the blood LDL-C” value is “became larger as the blood LDL-C concentration before the administration thereof increased”.
